# How the values were obtained:
# [1] = system: human peripheral blood mononuclear cells; assay: Induction of IL-2 production of PHA-M-stimulated human peripheral blood mononuclear cells (Example 2); assay type: cell-based; conditions: PHA-M 5 μg/ml, 3 days, ELISA (FIG. 3)
# Protocol: Human peripheral blood mononuclear cells were introduced into a human complete medium (i.e., RPMI-1640 supplemented with 10% heat-inactivated FBS, 100 U/ml penicillin, and 100 μg/ml streptomycin) to prepare a cell suspension (1×10^6 cells/ml). Phytohemagglutinin M (PHA-M) was added thereto to the final concentration of 5 μg/ml, and Compound (I) or an EGFR tyrosine kinase inhibitor (AZD9291) was further added thereto to each final concentration. This culture solution was seeded in a 96-well plate at 200 μl/well and then cultured in an incubator at 37° C. in the presence of 5% CO2 for 3 days. The culture supernatant was recovered, and the concentration of IL-2 therein was measured via ELISA using the anti-hIL-2 antibody.
# [2] = system: mouse spleen cells; assay: Induction of IL-2 production of mouse spleen cells stimulated with anti-CD3 antibody and anti-CD28 antibody (Example 1); assay type: cell-based
# Protocol: The mouse spleen was extracted, grinded with glass slides with frosted areas, and then subjected to hemolysis, so as to obtain spleen cells. The resulting spleen cells were introduced into a complete medium (i.e., RPMI-1640 supplemented with 10% heat-inactivated FBS, 100 U/ml penicillin, 100 μg/ml streptomycin, and 55 μM 2-mercaptoethanol) to a cell density of 2×10^6 cells/ml, the anti-CD3 antibody and the anti-CD28 antibody were added thereto to the final concentrations of 3 μg/ml and 0.5 μg/ml, respectively, and Compound (I) was further added thereto to each final concentration. The culture solution was seeded in a 96-well plate at 200 μl/well and then cultured in an incubator at 37° C. in the presence of 5% CO2 for 2 days. The culture supernatant was recovered, and the concentration of IL-2 contained therein was measured via ELISA using anti-mIL-2 antibody.
# Also, culture was conducted in the same manner with the addition of the anti-CD3 antibody at a variable final concentration, the anti-CD28 antibody at the final concentration of 0.5 μg/ml, and Compound (I) at the final concentration of 0.0 μM or 0.1 μM, and the IL-2 concentration in the culture supernatant was measured.
# [3] = system: mouse spleen cells; assay: Excitation of T cell growth, CFSE flow cytometry of CD4- and CD8-positive spleen cells (Example 4); assay type: cell-based; conditions: anti-CD3 1 μg/ml and anti-CD28 1 μg/ml, 3 days; comparators at 0.1 μM (FIG. 5)
# Protocol: The mouse spleen was extracted, grinded with glass slides with frosted areas, and then subjected to hemolysis, so as to obtain spleen cells. The spleen cells were suspended in 5 ml of a staining buffer (0.5% BSA, 2 mM EDTA, PBS(-)), and the cells were stained with 5 μM CFSE (5-carboxyfluorescein succinimidyl ester). Thereafter, the stained cells were washed with an ice-cooled complete medium (RPMI-1640). The CFSE-stained spleen cells were introduced into a complete medium (i.e., RPMI-1640 supplemented with 10% heat-inactivated FBS, 100 U/ml penicillin, 100 μg/ml streptomycin, and 55 μM 2-mercaptoethanol) to prepare a cell suspension (1×10^6 cells/ml), the anti-CD3 antibody and the anti-CD28 antibody were added at 1 μg/ml and 1 μg/ml, respectively, and Compound (I) adjusted to various concentrations or the EGFR tyrosine kinase inhibitor (i.e., AZD09291, Erlotinib, Co1686 (Rociletinib), Ibrutinib, Sunitinib, or Dasatinib) was added at 0.1 μM. […] These culture solutions were seeded in a 96-well plate at 200 μl/well and then cultured in an incubator at 37° C. in the presence of 5% CO2 for 3 days. The cells were recovered and stained with the anti-CD4 antibody and the anti-CD8 antibody. The amounts of CFSE in CD4- and CD8-positive cells were analyzed via flow cytometry.
# Once CFSE is incorporated into a cell, the amount thereof is kept constant in the cell. Since the amount of CFSE per cell decreases by half upon cell division, according to flow cytometric analysis, the intensity of CFSE staining is attenuated and is shifted toward left (i.e., lower level) in the chart, as cell division proceeds. […] In the case of the samples to which other types of EGFR tyrosine kinase inhibitors had been added, in contrast, no such activity for enhancing the cell growth was observed.
# [4] = system: K1735M2; assay: Tumor volume of subcutaneous mouse melanoma cell line, potentiation of anti-PD-1 or anti-PD-L1 antibody, in vivo model (Example 10); conditions: Compound (I) 50 mg/kg, antibody 100 μg/mouse, alone or in combination (FIG. 12)
# Protocol: A cell suspension of the mouse melanoma cell line K1735M2 was prepared with the use of PBS(-) and 50% Matrigel, and the cell suspension was injected subcutaneously into mice at 1×10^6 cells/mouse. The mice were divided into groups based on their body weights 1 day after implantation, Compound (I) (50 mg/kg) or the anti-PD-1 antibody or anti-PD-L1 antibody (100 μg/mouse) was administered thereto alone or either the anti-PD-1 antibody or the anti-PD-L1 antibody was administered in combination with Compound (I), and the tumor volume was measured with the elapse of time. The tumor volume was determined on the basis of the longer diameter and the shorter diameter of the tumor measured percutaneously in accordance with Equation A shown above.
# [5] = system: MC38; assay: Tumor volume of subcutaneous mouse colon cancer cell line, alone or combined with anti-PD-1 antibody, in vivo model (Example 11)
# Protocol: A cell suspension of the mouse colon cancer cell line MC38 was prepared with the use of PBS(-) and 50% Matrigel, and the cell suspension was injected subcutaneously into mice at 1×10^6 cells/mouse. The mice were divided into groups when the average subcutaneous tumor volume reached approximately 50 mm^3, Compound (I) (50 mg/kg) or the anti-PD-1 antibody (50 μg/mouse) was administered thereto alone or Compound (I) (50 mg/kg) was administered in combination with the anti-PD-1 antibody (50 μg/mouse), and the tumor volume was measured with the elapse of time. The tumor volume was determined on the basis of the longer diameter and the shorter diameter of the tumor measured percutaneously in accordance with Equation A shown below.
# Tumor volume (mm^3)=longer diameter (mm)×shorter diameter (mm)^2/2 (Equation A)
compound,measurement,setting,value
"C=CC(=O)N[C@H]1CCc2c(-c3cnc4ccccc4c3)c3c(N)ncnc3n2C1 [Compound (I), (S)—N-(4-amino-5-(quinolin-3-yl)-6,7,8,9-tetrahydropyrimido[5,4-b]indolizin-8-yl)acrylamide]",concentration of IL-2 produced by human peripheral blood mononuclear cells in the culture supernatant,[1],induced IL-2 production
same,concentration of IL-2 produced by mouse spleen cells in the culture supernatant,"[2]; anti-CD3 antibody 3 μg/ml and anti-CD28 antibody 0.5 μg/ml constant, Compound (I) variable, 2 days, ELISA (FIG. 1)",increased as the amount of Compound (I) added increased
same,concentration of IL-2 produced by mouse spleen cells in the culture supernatant,"[2]; anti-CD3 antibody variable, anti-CD28 antibody 0.5 μg/ml, Compound (I) 0.1 μM vs 0.0 μM (FIG. 2)",IL-2 production was induced upon stimulation with the anti-CD3 antibody
same,amount of CFSE per CD4-positive cell (cell growth),[3],decreases
same,amount of CFSE per CD8-positive cell (cell growth),[3],decreases
same,extent of tumor growth inhibition (tumor volume),[4],not sufficient
same,extent of tumor growth inhibition (tumor volume),"[5]; Compound (I) 50 mg/kg alone, compared with control group (FIG. 13)",greater
same,potentiation of the activity of the anti-PD-1 antibody (tumor volume),[5]; Compound (I) 50 mg/kg in combination with anti-PD-1 antibody 50 μg/mouse (FIG. 13),potentiate the immunomodulation activity of the anti-PD-1 antibody

# — patent US20170202838A1, “IMMUNOMODULATOR” (TAIHO PHARMACEUTICAL CO., LTD., priority 2015, published 2017)
